This series is described as follows: Dissolution test (paddle method, Japanese Pharmacopoeia Sixteenth Edition), first fluid for dissolution test. Type of series: physicochemical. Conditions: for dissolution rate in the first fluid for dissolution test: 30 minutes after initiation, paddle 50 rpm, 37° C., 900 mL, hydrochloride. On the procedure:
In order to evaluate each of the compositions (tablets) in Example 1 and Comparative Example 1, a dissolution test was performed in accordance with dissolution apparatus 2 (paddle method) in the Japanese Pharmacopoeia Sixteenth Edition. Detailed conditions of the dissolution test are as follows.
In order to evaluate each of the compositions (tablets) in Example 2 and Comparative Example 2, a dissolution test was performed in the same manner as in Test Example 1.

Setting [1] is: coated tablets of Example 1 / Comparative Example 1 (direct compression), FIG. 5.

Regarding `COc1c(N2C[C@H](CNC3CC3)[C@H](F)C2)c(F)cc2c(=O)c(C(=O)O)cn(CCF)c12.Cl` [Compound 1, 7-[(3S,4S)-3-((cyclopropylamino)methyl)-4-fluoropyrrolidine-1-yl]-6-fluoro-1-(2-fluoroethyl)-8-methoxy-4-oxo-1,4-dihydroquinoline-3-carboxylic acid hydrochloride], the “dissolution rate in the first fluid for dissolution test” value under setting [1] is reported as “at most 25%” and the “dissolution rate in the first fluid for dissolution test” value (coated tablets of Example 2 / Comparative Example 2 (wet granulation method), FIG. 6) is on record as “at most 30%”.
`COc1c(N2C[C@H](CNC3CC3)[C@H](F)C2)c(F)cc2c(=O)c(C(=O)O)cn(CCF)c12.Cl` [Compound 2, 7-[(3S,4S)-3-{(cyclopropylamino)methyl}-4-fluoropyrrolidine-1-yl]-6-fluoro-1-(2-fluoroethyl)-8-methoxy-4-oxo-1,4-dihydroquinoline-3-carboxylic acid hydrochloride]: the “dissolution rate in the first fluid for dissolution test” value reads like this: under setting [1], ≥ 80%; (coated tablets of Example 2 / Comparative Example 2 (wet granulation method), FIG. 6, listed as B-form crystal) ≥ 80%. Further, for the setting “tablets of Example 1 vs Comparative Example 1, FIG. 5”, the “dissolution rate in the first fluid for dissolution test compared with the tablet containing Compound 1 (A-form crystal)” value is given as “higher”.

For the origin of these results see patent publication US20170246160A1, “SOLID PHARMACEUTICAL COMPOSITION” (KYORIN PHARMACEUTICAL CO., LTD., priority 2014, published 2017).
